From US20010021697A1, “METHODS AND COMPOSITIONS FOR THE TREATMENT OF MAMMALIAN INFECTIONS EMPLOYING MEDICAMENTS COMPRISING HYMENOPTERA VENOM, PROTEINAGEOUS OR POLYPEPTIDE COMPONENTS THEREOF, OR ANALOGUES OF SUCH PROTEINACEOUS OR POLYPEPTIDE COMPONENTS” (priority 1987, published 2001)
Read-outs that look alike come from different tables or passages of the source.

Tests used:
Assay type in all cases: cell-based
S. aureus #140A = system: S. aureus #140A
E. coli #G1880E = system: E. coli #G1880E
[1] = system: kanamycin resistant S. aureus; experiment: Checkerboard titration assay for synergy of honeybee venom with antibiotics (OD660 growth curves)

CC1(C)S[C@@H]2[C@H](NC(=O)[C@H](N)c3ccccc3)C(=O)N2[C@H]1C(=O)O [AMP]
MEAN A660 (S. aureus #140A; AMP = 0.05, HBV = 0, T0): 0.013
MEAN A660 (S. aureus #140A; AMP = 0.05, HBV = 0, T2): 0.085
MEAN A660 (S. aureus #140A; AMP = 0.05, HBV = 0, T4): 0.355
MEAN A660 (S. aureus #140A; AMP = 0.05, HBV = 0, T6): 0.552
MEAN A660 (S. aureus #140A; AMP = 0.05, HBV = 0, T12): 0.736
MEAN A660 (S. aureus #140A; AMP = 0.05, HBV = 0, T24): 0.760
MEAN A660 (S. aureus #140A; AMP = 0.05, HBV = 0, TB): 0.689
MEAN A66O (S. aureus #140A; AMP = 0.1, HBV = 0, T0): 0.013
MEAN A66O (S. aureus #140A; AMP = 0.1, HBV = 0, T2): 0.085
MEAN A66O (S. aureus #140A; AMP = 0.1, HBV = 0, T4): 0.257
MEAN A66O (S. aureus #140A; AMP = 0.1, HBV = 0, T6): 0.248
MEAN A66O (S. aureus #140A; AMP = 0.1, HBV = 0, T8): 0.155
MEAN A66O (S. aureus #140A; AMP = 0.1, HBV = 0, T12): 0.095
MEAN A66O (S. aureus #140A; AMP = 0.1, HBV = 0, T24): 0.347
MEAN A660 (S. aureus #140A; AMP = 0.2, HBV = 0, T0): 0.013
MEAN A660 (S. aureus #140A; AMP = 0.2, HBV = 0, T2): 0.085
MEAN A660 (S. aureus #140A; AMP = 0.2, HBV = 0, T4): 0.202
MEAN A660 (S. aureus #140A; AMP = 0.2, HBV = 0, T6): 0.112
MEAN A660 (S. aureus #140A; AMP = 0.2, HBV = 0, T8): 0.052
MEAN A660 (S. aureus #140A; AMP = 0.2, HBV = 0, T12): 0.037
MEAN A660 (S. aureus #140A; AMP = 0.2, HBV = 0, T24): 0.042
MEAN A66O (S. aureus #140A; AMP = 0.4, HBV = 0, T0): 0.013
MEAN A66O (S. aureus #140A; AMP = 0.4, HBV = 0, T2): 0.085
MEAN A66O (S. aureus #140A; AMP = 0.4, HBV = 0, T4): 0.191
MEAN A66O (S. aureus #140A; AMP = 0.4, HBV = 0, T6): 0.110
MEAN A66O (S. aureus #140A; AMP = 0.4, HBV = 0, T8): 0.048
MEAN A66O (S. aureus #140A; AMP = 0.4, HBV = 0, T12): 0.027
MEAN A66O (S. aureus #140A; AMP = 0.4, HBV = 0, T24): 0.027
MEAN A660 (E. coli #G1880E; AMP = 0.5, HBV = 0, T0): 0.015
MEAN A660 (E. coli #G1880E; AMP = 0.5, HBV = 0, T2): 0.084
MEAN A660 (E. coli #G1880E; AMP = 0.5, HBV = 0, T4): 0.600
MEAN A660 (E. coli #G1880E; AMP = 0.5, HBV = 0, T6): 1.001
MEAN A660 (E. coli #G1880E; AMP = 0.5, HBV = 0, T8): 0.999
MEAN A660 (E. coli #G1880E; AMP = 0.5, HBV = 0, T12): 1.085
MEAN A660 (E. coli #G1880E; AMP = 0.5, HBV = 0, T24): 1.156
MEAN A660 (E. coli #G1880E; AMP = 1, HBV = 0, T0): 0.015
MEAN A660 (E. coli #G1880E; AMP = 1, HBV = 0, T2): 0.084
MEAN A660 (E. coli #G1880E; AMP = 1, HBV = 0, T4): 0.538
MEAN A660 (E. coli #G1880E; AMP = 1, HBV = 0, T6): 0.628
MEAN A660 (E. coli #G1880E; AMP = 1, HBV = 0, T8): 0.493
MEAN A660 (E. coli #G1880E; AMP = 1, HBV = 0, T12): 0.475
MEAN A660 (E. coli #G1880E; AMP = 1, HBV = 0, T24): 0.504
MEAN A660 (E. coli #G1880E; AMP = 2, HBV = 0, T0): 0.015
MEAN A660 (E. coli #G1880E; AMP = 2, HBV = 0, T2): 0.084
MEAN A660 (E. coli #G1880E; AMP = 2, HBV = 0, T4): 0.428
MEAN A660 (E. coli #G1880E; AMP = 2, HBV = 0, T12): 0.136
MEAN A660 (E. coli #G1880E; AMP = 2, HBV = 0, T24): 0.647
MEAN A660 (E. coli #G1880E; AMP = 4, HBV = 0, T0): 0.015
MEAN A660 (E. coli #G1880E; AMP = 4, HBV = 0, T2): 0.084
MEAN A660 (E. coli #G1880E; AMP = 4, HBV = 0, T4): 0.158
MEAN A660 (E. coli #G1880E; AMP = 4, HBV = 0, T6): 0.063
MEAN A660 (E. coli #G1880E; AMP = 4, HBV = 0, T12): 0.055
MEAN A660 (E. coli #G1880E; AMP = 4, HBV = 0, T24): 0.056
MEAN A660 ([1]; AMP = 0.05, HBV = 0, T0): 0.020
MEAN A660 ([1]; AMP = 0.05, HBV = 0, T2): 0.064
MEAN A660 ([1]; AMP = 0.05, HBV = 0, T4): 0.230
MEAN A660 ([1]; AMP = 0.05, HBV = 0, T6): 0.338
MEAN A660 ([1]; AMP = 0.05, HBV = 0, T8): 0.372
MEAN A660 ([1]; AMP = 0.05, HBV = 0, T12): 0.352
MEAN A660 ([1]; AMP = 0.05, HBV = 0, T24): 0.461
MEAN A660 ([1]; AMP = 0.1, HBV = 0, T0): 0.020
MEAN A660 ([1]; AMP = 0.1, HBV = 0, T2): 0.064
MEAN A660 ([1]; AMP = 0.1, HBV = 0, T4): 0.379
MEAN A660 ([1]; AMP = 0.1, HBV = 0, T6): 0.156
MEAN A660 ([1]; AMP = 0.1, HBV = 0, T8): 0.112
MEAN A660 ([1]; AMP = 0.1, HBV = 0, T12): 0.050
MEAN A660 ([1]; AMP = 0.1, HBV = 0, T24): 0.053
MEAN A660 ([1]; AMP = 0.2, HBV = 0, T0): 0.020
MEAN A660 ([1]; AMP = 0.2, HBV = 0, T2): 0.064
MEAN A660 ([1]; AMP = 0.2, HBV = 0, T4): 0.131
MEAN A660 ([1]; AMP = 0.2, HBV = 0, T6): 0.110
MEAN A660 ([1]; AMP = 0.2, HBV = 0, T8): 0.073
MEAN A660 ([1]; AMP = 0.2, HBV = 0, T12): 0.030
MEAN A660 ([1]; AMP = 0.2, HBV = 0, T24): 0.037
MEAN A660 ([1]; AMP = 0.4, HBV = 0, T0): 0.020
MEAN A660 ([1]; AMP = 0.4, HBV = 0, T2): 0.064
MEAN A660 ([1]; AMP = 0.4, HBV = 0, T4): 0.202
MEAN A660 ([1]; AMP = 0.4, HBV = 0, T6): 0.290
MEAN A660 ([1]; AMP = 0.4, HBV = 0, T8): 0.285
MEAN A660 ([1]; AMP = 0.4, HBV = 0, T12): 0.271
MEAN A660 ([1]; AMP = 0.4, HBV = 0, T24): 0.277
